Source: patent US20240398823A1, “DUAL INHIBITOR OF HISTONE DEACETYLASE 6 AND HEAT SHOCK PROTEIN 90” (TAIPEI MEDICAL UNIVERSITY, priority 2021, published 2024)

Columns and labels:
HCT116 = experiment: MTT assay, survival of human colorectal cancer cells HCT116; type: cell-based; details: HCT-116, 48 h, mean ± SD, read-out: Human cell lines HCT116 IC50(μM ± SD)
Procedure: The effects on cell viability of the HSP90/HDAC6 dual inhibitors as described in Synthesis Examples (such as Compounds 63, 64, and 66 to 76) were evaluated. Cells were seeded in 96-well plates (5000 cells/well). The next day, the serially diluted drugs were added into the wells and incubated at 37° C. for 48 h. Cell viability was measured by the MTT assay and is expressed as percentages of surviving drug-treated cells relative to untreated control cells. The IC50 was calculated by non-linear regression analysis.
The inhibitory effect of the HSP90/HDAC6 dual inhibitors as described in Synthesis Examples on the survival rate of human colorectal cancer cells HCT116 is evaluated using MTT assay.

HDAC1 = biological target: T1, HDAC1 (Homo sapiens, UniProt Q13547); experiment: HDAC enzymes inhibition assay (Reaction Biology), HDAC1; type: biochemical; details: 10-dose, 3-fold dilution from 10 μM, single experiment
T1 construct: Reaction Biology Corporation (ran the assay as a service)

HDAC3 = biological target: T2, HDAC3 (Homo sapiens, UniProt O15379); experiment: HDAC enzymes inhibition assay (Reaction Biology), HDAC3; type: biochemical; details: 10-dose, 3-fold dilution from 10 μM, single experiment
T2 construct: Reaction Biology Corporation (ran the assay as a service)

HDAC6 = biological target: T3, HDAC6 (Homo sapiens, UniProt Q9UBN7); experiment: HDAC enzymes inhibition assay (Reaction Biology), HDAC6; type: biochemical; details: 10-dose, 3-fold dilution from 10 μM, single experiment
T3 construct: Reaction Biology Corporation (ran the assay as a service)
T3 sequence (Q9UBN7 1-1215): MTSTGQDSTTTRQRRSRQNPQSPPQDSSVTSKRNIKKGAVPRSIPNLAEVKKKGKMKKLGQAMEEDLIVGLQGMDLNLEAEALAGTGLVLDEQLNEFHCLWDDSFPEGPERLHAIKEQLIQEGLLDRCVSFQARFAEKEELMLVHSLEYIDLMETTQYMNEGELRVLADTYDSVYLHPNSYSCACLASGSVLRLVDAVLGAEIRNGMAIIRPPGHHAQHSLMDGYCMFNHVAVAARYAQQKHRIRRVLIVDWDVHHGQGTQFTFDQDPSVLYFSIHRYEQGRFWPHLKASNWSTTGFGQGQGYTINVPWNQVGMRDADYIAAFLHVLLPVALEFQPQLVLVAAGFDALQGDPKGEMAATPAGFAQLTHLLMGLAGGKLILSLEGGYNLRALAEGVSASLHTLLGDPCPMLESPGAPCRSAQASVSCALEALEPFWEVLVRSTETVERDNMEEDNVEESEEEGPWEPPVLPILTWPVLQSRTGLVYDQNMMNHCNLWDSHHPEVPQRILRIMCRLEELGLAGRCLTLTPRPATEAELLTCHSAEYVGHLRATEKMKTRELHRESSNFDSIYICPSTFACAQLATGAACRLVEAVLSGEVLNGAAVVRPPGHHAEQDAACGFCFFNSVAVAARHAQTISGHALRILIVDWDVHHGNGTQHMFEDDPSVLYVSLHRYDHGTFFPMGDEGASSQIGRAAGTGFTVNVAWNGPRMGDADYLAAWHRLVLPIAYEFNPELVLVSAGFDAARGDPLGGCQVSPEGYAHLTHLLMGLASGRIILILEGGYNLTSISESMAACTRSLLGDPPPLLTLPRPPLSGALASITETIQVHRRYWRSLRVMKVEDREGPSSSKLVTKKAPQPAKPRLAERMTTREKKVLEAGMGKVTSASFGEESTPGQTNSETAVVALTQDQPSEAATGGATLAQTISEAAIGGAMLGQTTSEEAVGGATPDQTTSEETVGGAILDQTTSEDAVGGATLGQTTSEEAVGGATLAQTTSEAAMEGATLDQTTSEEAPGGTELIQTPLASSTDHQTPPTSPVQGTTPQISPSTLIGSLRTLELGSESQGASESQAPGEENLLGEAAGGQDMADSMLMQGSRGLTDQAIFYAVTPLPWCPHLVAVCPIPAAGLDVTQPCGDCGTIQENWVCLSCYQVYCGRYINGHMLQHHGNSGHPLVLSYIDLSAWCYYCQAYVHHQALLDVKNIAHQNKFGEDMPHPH

HSP90α = biological target: T4, HSP90α (Homo sapiens, UniProt P07900); experiment: HSP90 inhibition assay, FITC-geldanamycin competition fluorescence polarization, HSP90α; type: binding; details: FITC-GM competition
T4 construct: Reaction Biology Corporation (ran the assay as a service)

HSP90β = biological target: T5, HSP90β (Homo sapiens, UniProt P08238); experiment: HSP90 inhibition assay, FITC-geldanamycin competition fluorescence polarization, HSP90β; type: binding; details: FITC-GM competition
T5 construct: Reaction Biology Corporation (ran the assay as a service)
T5 sequence (P08238 whole entry): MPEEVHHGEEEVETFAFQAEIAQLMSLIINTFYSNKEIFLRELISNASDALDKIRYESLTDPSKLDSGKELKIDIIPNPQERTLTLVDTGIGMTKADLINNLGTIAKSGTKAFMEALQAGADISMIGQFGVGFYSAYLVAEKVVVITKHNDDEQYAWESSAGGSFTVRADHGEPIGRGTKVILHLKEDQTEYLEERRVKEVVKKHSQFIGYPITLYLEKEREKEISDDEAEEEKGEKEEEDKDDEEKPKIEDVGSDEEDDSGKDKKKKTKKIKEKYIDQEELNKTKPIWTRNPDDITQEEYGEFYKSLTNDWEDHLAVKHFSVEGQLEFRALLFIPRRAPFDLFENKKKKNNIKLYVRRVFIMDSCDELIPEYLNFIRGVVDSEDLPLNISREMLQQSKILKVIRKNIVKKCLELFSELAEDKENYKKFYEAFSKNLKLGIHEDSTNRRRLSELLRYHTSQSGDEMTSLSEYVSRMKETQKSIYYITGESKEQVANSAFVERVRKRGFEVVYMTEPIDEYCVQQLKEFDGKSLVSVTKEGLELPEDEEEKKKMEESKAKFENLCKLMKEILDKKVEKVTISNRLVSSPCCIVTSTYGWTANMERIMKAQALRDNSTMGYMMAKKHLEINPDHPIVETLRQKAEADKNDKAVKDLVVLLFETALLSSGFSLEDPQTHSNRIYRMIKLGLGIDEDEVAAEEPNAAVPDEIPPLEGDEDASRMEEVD

T1 sequence (Q13547 whole entry): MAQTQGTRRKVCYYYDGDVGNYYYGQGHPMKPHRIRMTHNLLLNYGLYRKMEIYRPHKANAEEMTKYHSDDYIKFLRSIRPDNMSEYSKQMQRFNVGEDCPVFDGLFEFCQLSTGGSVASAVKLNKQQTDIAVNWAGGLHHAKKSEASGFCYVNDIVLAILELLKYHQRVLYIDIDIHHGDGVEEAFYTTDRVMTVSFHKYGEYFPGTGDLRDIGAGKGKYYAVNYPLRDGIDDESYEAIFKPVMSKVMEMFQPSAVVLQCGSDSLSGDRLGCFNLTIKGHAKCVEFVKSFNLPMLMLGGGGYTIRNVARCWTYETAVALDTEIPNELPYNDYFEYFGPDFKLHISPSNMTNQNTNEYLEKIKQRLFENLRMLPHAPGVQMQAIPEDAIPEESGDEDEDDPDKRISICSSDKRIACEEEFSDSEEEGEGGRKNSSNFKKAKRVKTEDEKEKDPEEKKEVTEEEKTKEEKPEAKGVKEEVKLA
T2 sequence (O15379 whole entry): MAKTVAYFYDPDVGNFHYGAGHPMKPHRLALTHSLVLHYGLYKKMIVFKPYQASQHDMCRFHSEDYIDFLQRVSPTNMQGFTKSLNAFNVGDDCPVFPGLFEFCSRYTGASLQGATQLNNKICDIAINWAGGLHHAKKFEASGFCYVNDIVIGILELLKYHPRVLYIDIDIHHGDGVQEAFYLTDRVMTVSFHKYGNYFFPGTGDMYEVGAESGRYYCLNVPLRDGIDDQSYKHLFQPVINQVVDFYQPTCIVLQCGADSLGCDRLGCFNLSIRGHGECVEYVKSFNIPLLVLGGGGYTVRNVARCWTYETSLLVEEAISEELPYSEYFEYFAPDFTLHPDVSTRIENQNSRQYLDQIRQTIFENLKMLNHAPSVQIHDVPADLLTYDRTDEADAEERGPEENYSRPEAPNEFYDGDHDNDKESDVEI
T2 sequence (Q9Y618 395-489 partner limits assumed): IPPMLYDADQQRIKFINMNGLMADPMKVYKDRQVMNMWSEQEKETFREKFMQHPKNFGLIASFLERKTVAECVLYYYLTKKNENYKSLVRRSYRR

Row | SMILES | IC50 (HCT116) | IC50 (HDAC1) | IC50 (HDAC3) | IC50 (HDAC6) | IC50 (HSP90α) | IC50 (HSP90β)
1 | CC(C)c1cc(C(=O)N(C)Cc2ccc(C(=O)NO)cc2)c(O)cc1O [Compound 63, 2,4-dihydroxy-N-(4-(hydroxycarbamoyl)benzyl)-5-isopropyl-N-methylbenzamide] | 1.09 ± 0.08 µM | 1760 nM | 3620 nM | 5.93 nM | 25.2 nM | 38.8 nM
2 | CCN(Cc1ccc(C(=O)NO)cc1)C(=O)c1cc(C(C)C)c(O)cc1O [Compound 64, N-ethyl-2,4-dihydroxy-N-(4-(hydroxycarbamoyl)benzyl)-5-isopropylbenzamide] | 3.69 ± 0.09 µM | 5230 nM | > 10000 nM | 23 nM | 93.9 nM | 190 nM
3 | CC(C)c1cc(C(=O)N(Cc2ccc(C(=O)NO)cc2)c2ccccc2)c(O)cc1O [Compound 66, 2,4-dihydroxy-N-(4-(hydroxycarbamoyl)benzyl)-5-isopropyl-N-phenylbenzamide] | 0.9 ± 0.09 µM | 3680 nM | 4740 nM | 23.9 nM | 54.5 nM | 200 nM
4 | CC(C)c1cc(C(=O)N(Cc2ccc(C(=O)NO)cc2)c2ccc(F)cc2)c(O)cc1O [Compound 67, N-(4-fluorophenyl)-2,4-dihydroxy-N-(4-(hydroxycarbamoyl)benzyl)-5-isopropylbenzamide] | 4.61 ± 0.11 µM | 1690 nM | 3140 nM | 22.9 nM | 40.8 nM | 103 nM
5 | CC(C)c1cc(C(=O)N(Cc2ccc(C(=O)NO)cc2)c2ccc(Cl)cc2)c(O)cc1O [Compound 68, N-(4-chlorophenyl)-2,4-dihydroxy-N-(4-(hydroxycarbamoyl)benzyl)-5-isopropylbenzamide] | 5.28 ± 0.92 µM | 1810 nM | 3030 nM | 17.2 nM | 59.9 nM | 159 nM
6 | CC(C)c1cc(C(=O)N(Cc2ccc(C(=O)NO)cc2)c2ccc(I)cc2)c(O)cc1O [Compound 69, 2,4-dihydroxy-N-(4-(hydroxycarbamoyl)benzyl)-N-(4-iodophenyl)-5-isopropylbenzamide] | 1.16 ± 0.01 µM | 1290 nM | 2170 nM | 9.17 nM | 91.4 nM | 272 nM
7 | CC(C)c1cc(C(=O)N(Cc2ccc(C(=O)NO)cc2)c2ccc3c(c2)OCO3)c(O)cc1O [Compound 70, N-(benzo[d][1,3]dioxol-5-yl)-2,4-dihydroxy-N-(4-(hydroxycarbamoyl)benzyl)-5-isopropylbenzamide] | 0.25 ± 0.04 µM | 1120 nM | 2200 nM | 12.9 nM | 39.9 nM | 95.6 nM
8 | CC(C)c1cc(C(=O)N(Cc2ccc(C(=O)NO)cc2)c2ccc(N3CCOCC3)cc2)c(O)cc1O [Compound 71, 2,4-dihydroxy-N-(4-(hydroxycarbamoyl)benzyl)-5-isopropyl-N-(4-morpholinophenyl)benzamide] | 0.47 ± 0.02 µM | 275 nM | 691 nM | 16 nM | 16.3 nM | 18.7 nM
9 | CC(C)c1cc(C(=O)N(Cc2ccc(C(=O)NO)cc2)c2ccc(N(C)C)cc2)c(O)cc1O [Compound 72, N-(4-(dimethylamino)phenyl)-2,4-dihydroxy-N-(4-(hydroxycarbamoyl)benzyl)-5-isopropylbenzamide] | 0.9 ± 0.18 µM | 1070 nM | 2190 nM | 13.7 nM | 32.2 nM | 117 nM
10 | CC(C)c1cc(C(=O)N(Cc2ccc(C(=O)NO)cc2)c2ccc(N3CCN(C)CC3)cc2)c(O)cc1O [Compound 73, 2,4-dihydroxy-N-(4-(hydroxycarbamoyl)benzyl)-5-isopropyl-N-(4-(4-methylpiperazin-1-yl)phenyl)benzamide] | 1.25 ± 0.13 µM | 173 nM | 645 nM | 5.88 nM | 36.7 nM | 60.5 nM
11 | CC(C)c1cc(C(=O)N(Cc2ccc(C(=O)NO)cc2)c2ccc(N3CCCCC3)cc2)c(O)cc1O [Compound 74, 2,4-dihydroxy-N-(4-(hydroxycarbamoyl)benzyl)-5-isopropyl-N-(4-(piperidin-1-yl)phenyl)benzamide] | 4.83 ± 0.47 µM | 1230 nM | 2700 nM | 70.5 nM | 98.7 nM | 373 nM
12 | CC(C)c1cc(C(=O)N(Cc2ccc(C(=O)NO)cc2)c2ccc(O)cc2)c(O)cc1O [Compound 76, 2,4-Dihydroxy-N-(4-hydroxycarbamoyl-benzyl)-N-(4-hydroxy-phenyl)-5-isopropyl-benzamide] | 0.83 ± 0.01 µM | 961 nM | 2840 nM | 6.54 nM | 35 nM | 51.8 nM
